PubChem BioAssay AID256 (DTP/NCI, 2004)
Where “and” joins values, the source holds several entries; their conditions need not be identical. Equal values may be shown once. Inconclusive results and toxic doses are left out. How the source made its calls: active means survival T/C of 150% or more; inactive means T/C below 125% in these data.

Test system: CD2F1 mice, L1210 leukemia ip, survival T/C
Test: NCI In Vivo Anticancer Drug Screen. Data for tumor model L1210 Leukemia (intraperitoneal) in CD2F1 (CDF1) mice
Details: endpoint: mean survival time, higher = longer survival
Procedure, shortened: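 Activity against a transplanted murine tumor was judged by comparing the compound group with a vehicle group. The outcome in the treated animals was divided by that in the controls.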

[1] = dose: 100.0 mg/kg/injection, schedule: Q01DX009 (ip), vehicle: saline with Tween-80
[2] = dose: 100.0 mg/kg/injection, schedule: Q04DX003 (ip), vehicle: saline with Tween-80
[3] = dose: 200.0 mg/kg/injection, schedule: Q01DX009 (ip), vehicle: saline with Tween-80
[4] = dose: 200.0 mg/kg/injection, schedule: Q04DX003 (ip), vehicle: saline with Tween-80
[5] = dose: 400.0 mg/kg/injection, schedule: Q04DX003 (ip), vehicle: saline with Tween-80
[6] = dose: 100.0 mg/kg/injection, schedule: Q04DX003 (ip), vehicle: saline
[7] = dose: 200.0 mg/kg/injection, schedule: Q04DX003 (ip), vehicle: saline
[8] = dose: 100.0 mg/kg/injection, schedule: Q01DX001 (ip), vehicle: saline with Tween-80
[9] = dose: 400.0 mg/kg/injection, schedule: Q01DX009 (ip), vehicle: saline with Tween-80
[10] = dose: 100.0 mg/kg/injection, schedule: Q04DX003 (ip), vehicle: saline sonified
[11] = dose: 200.0 mg/kg/injection, schedule: Q04DX003 (ip), vehicle: saline sonified
[12] = dose: 400.0 mg/kg/injection, schedule: Q04DX003 (ip), vehicle: saline sonified
[13] = dose: 50.0 mg/kg/injection, schedule: Q04DX003 (ip), vehicle: saline
[14] = dose: 25.0 mg/kg/injection, schedule: Q04DX002 (ip), vehicle: saline with Tween-80
[15] = dose: 50.0 mg/kg/injection, schedule: Q04DX002 (ip), vehicle: saline with Tween-80
[16] = dose: 12.5 mg/kg/injection, schedule: Q01DX009 (ip), vehicle: saline with Tween-80
[17] = dose: 25.0 mg/kg/injection, schedule: Q01DX009 (ip), vehicle: saline with Tween-80
[18] = dose: 50.0 mg/kg/injection, schedule: Q01DX009 (ip), vehicle: saline with Tween-80
[19] = dose: 100.0 mg/kg/injection, schedule: Q04DX002 (ip), vehicle: saline with Tween-80
[20] = dose: 200.0 mg/kg/injection, schedule: Q04DX002 (ip), vehicle: saline with Tween-80
[21] = dose: 400.0 mg/kg/injection, schedule: Q04DX002 (ip), vehicle: saline with Tween-80

Measured: T/C

CNCCc1ccc2cc(OC)c(OC)cc2c1
inactive: dose: 25.0 mg/kg/injection, schedule: Q01DX009 (ip), vehicle: saline sonified 104 % of control | dose: 50.0 mg/kg/injection, schedule: Q01DX009 (ip), vehicle: saline sonified 104 % of control | dose: 100.0 mg/kg/injection, schedule: Q01DX009 (ip), vehicle: saline sonified 104 % of control

CCOC(=O)Cn1cnc2cc(C)c(C)cc21
inactive: [1] 101 % of control | [2] 94 % of control | [3] 94 % of control | [4] 100 % of control | [5] 96 % of control

CC(=O)OCC1OC(OC(C)=O)C(OC(C)=O)C(OC(C)=O)C1OC(C)=O (stereo unspecified)
inactive: [6] 95 % of control | [7] 98 % of control | dose: 400.0 mg/kg/injection, schedule: Q04DX003 (ip), vehicle: saline 97 % of control

CC(C)(O)CCC(C)(O)C1CCC2C3CCC4CC(O)CCC4(C)C3CCC21C (stereo unspecified)
inactive: [8] 92 % of control | dose: 200.0 mg/kg/injection, schedule: Q01DX001 (ip), vehicle: saline with Tween-80 93 % of control | dose: 400.0 mg/kg/injection, schedule: Q01DX001 (ip), vehicle: saline with Tween-80 86 % of control

CC/C(C)=C(/C(=O)O)c1ccccc1
inactive: [1] 95 % of control | [3] 98 % of control | [9] 97 % of control

N#CC(/C=C/c1ccccc1)Nc1ccccc1 (stereo unspecified)
inactive: [1] 89 % of control | [10] 100 % of control | [3] 90 % of control | [11] 97 % of control | [9] 89 % of control | [12] 96 % of control

O=C(O)c1c(F)c(F)c(F)c(C(=O)O)c1F
inactive: dose: 12.5 mg/kg/injection, schedule: Q01DX009 (ip), vehicle: saline 89 % of control | dose: 25.0 mg/kg/injection, schedule: Q01DX009 (ip), vehicle: saline 95 % of control | dose: 25.0 mg/kg/injection, schedule: Q04DX003 (ip), vehicle: saline 89 % of control | dose: 50.0 mg/kg/injection, schedule: Q01DX009 (ip), vehicle: saline 95 % of control | [13] 88 % of control | [2] 93 % of control

CC(C)NC(=O)C1CC2c3cccc4c3C(CN4)CC2N(C)C1 (stereo unspecified)
inactive: dose: 12.5 mg/kg/injection, schedule: Q04DX002 (ip), vehicle: saline with Tween-80 98 % of control | [14] 95 % of control | [15] 98 % of control

NC(=O)C1(C(N)=O)CC1
inactive: dose: 100.0 mg/kg/injection, schedule: Q04DX002 (ip), vehicle: saline 108 % of control | dose: 200.0 mg/kg/injection, schedule: Q04DX002 (ip), vehicle: saline 104 % of control | dose: 400.0 mg/kg/injection, schedule: Q04DX002 (ip), vehicle: saline 100 % of control

C[NH-].C[NH-].[Cl][Pt+2][Cl]
inactive: dose: 2.5 mg/kg/injection, schedule: Q04DX003 (ip), vehicle: water 91 % of control | dose: 5.0 mg/kg/injection, schedule: Q04DX003 (ip), vehicle: water 120 % of control | dose: 10.0 mg/kg/injection, schedule: Q04DX003 (ip), vehicle: water 92 % of control

CC1(C)CC2(OC2c2ccccc2[N+](=O)[O-])C(=O)c2ccccc21 (stereo unspecified)
inactive: [1] 98 % of control | [2] 96 % of control | [3] 96 % of control | [4] 98 % of control | [9] 96 % of control | [5] 91 % of control

OC(CI)C1OCOC2COCOC21 (stereo unspecified)
inactive: dose: 100.0 mg/kg/injection, schedule: Q04DX003 (ip), vehicle: Klucel (hydroxypropylcellulose) (HPC) 102 % of control | dose: 200.0 mg/kg/injection, schedule: Q04DX003 (ip), vehicle: Klucel (hydroxypropylcellulose) (HPC) 94 % of control | dose: 400.0 mg/kg/injection, schedule: Q04DX003 (ip), vehicle: Klucel (hydroxypropylcellulose) (HPC) 97 % of control

OC(CC1(O)C(F)(F)C(F)(F)C1(F)F)c1ccccc1 (stereo unspecified)
inactive: [2] 96 % of control | [4] 92 % of control | [5] 90 % of control

CC(C)(CN=Cc1ccccc1[O-])N=Cc1ccccc1[O-].[O]=[V]
inactive: [16] 89 % of control | [17] 96 % of control | [18] 91 % of control | [2] 100 % of control | [4] 88 % of control

CC(C)(N)C(=O)O
inactive: [1] 100 % of control | [3] 101 % of control | [9] 103 % of control

Nc1ccc2cc(O)ccc2c1
inactive: [16] 91 % of control | [17] 98 % of control | [18] 95 % of control

COC(=O)C(Br)C(OC)c1ccc(Cl)cc1 (stereo unspecified)
inactive: [1] 101 % of control | [10] 100 % of control | [3] 95 % of control | [11] 101 % of control | [9] 97 % of control | [12] 95 % of control

O=C(O)CC1CCCCCCCCCCC1=O (stereo unspecified)
inactive: [19] 98 % of control | [20] 91 % of control | [21] 98 % of control

O/N=C1/CCCC/C1=C/c1ccccc1
inactive: [1] 103 % of control | [3] 97 % of control | [9] 97 % of control

CCOC(=O)c1ccc(NC(=O)Oc2cc3ccccc3cc2C(=O)Nc2ccccc2)cc1
inactive: dose: 25.0 mg/kg/injection, schedule: Q01DX001 (ip), vehicle: saline with Tween-80 87 % of control | [17] 94 % of control and 96 % of control | [14] 97 % of control | dose: 25.0 mg/kg/injection, schedule: Q04DX003 (ip), vehicle: saline with Tween-80 96 % of control and 98 % of control | dose: 50.0 mg/kg/injection, schedule: Q01DX001 (ip), vehicle: saline with Tween-80 87 % of control | [18] 88 % of control and 92 % of control | [15] 88 % of control and 92 % of control | dose: 50.0 mg/kg/injection, schedule: Q04DX003 (ip), vehicle: saline with Tween-80 88 % of control and 92 % of control | [8] 87 % of control | [1] 91 % of control and 96 % of control | [2] 92 % of control | [20] 87 % of control | [4] 92 % of control and 93 % of control

O=C(N=C=S)c1ccccc1
inactive: dose: 100.0 mg/kg/injection, schedule: Q04DX003 (ip), vehicle: other 90 % of control | dose: 200.0 mg/kg/injection, schedule: Q04DX003 (ip), vehicle: other 101 % of control | dose: 400.0 mg/kg/injection, schedule: Q04DX003 (ip), vehicle: other 101 % of control

N#CSc1nc2ccccc2s1
inactive: [17] 96 % of control | [18] 94 % of control | [1] 97 % of control

O=C(Nc1ccc2c3c(cccc13)CC2)c1ccccc1
inactive: [2] 95 % of control | [4] 97 % of control | [5] 92 % of control

Cc1cc(Cl)ccc1NC(=O)Nc1nccs1
inactive: [16] 98 % of control | [17] 98 % of control | [18] 95 % of control | [1] 95 % of control | [3] 100 % of control

Cc1ccc(N=Cc2cc(I)cc(I)c2O)cc1.Cc1ccc(N=Cc2cc(I)cc(I)c2O)cc1.[Co]
inactive: [13] 87 % of control | [6] 104 % of control | [7] 96 % of control

CC(C)(CCC#N)/C(=N\Nc1ccc([N+](=O)[O-])cc1[N+](=O)[O-])c1ccccc1
inactive: dose: 75.0 mg/kg/injection, schedule: Q04DX002 (ip), vehicle: saline with Tween-80 90 % of control | dose: 150.0 mg/kg/injection, schedule: Q04DX002 (ip), vehicle: saline with Tween-80 102 % of control | dose: 300.0 mg/kg/injection, schedule: Q04DX002 (ip), vehicle: saline with Tween-80 94 % of control

c1ccc(Cn2cc(CCc3ccncc3)c3ccccc32)cc1
inactive: [18] 88 % of control | [1] 93 % of control | [2] 91 % of control | [4] 92 % of control

CC(Sc1ccccc1)C(=O)OC1C=CCCC1 (stereo unspecified)
inactive: [19] 98 % of control | [20] 106 % of control | [21] 98 % of control

CC(=O)c1ccc(CCCCCCCC(=O)O)o1
inactive: dose: 50.0 mg/kg/injection, schedule: Q01DX001 (ip), vehicle: Klucel (hydroxypropylcellulose) (HPC) 97 % of control | dose: 100.0 mg/kg/injection, schedule: Q01DX001 (ip), vehicle: Klucel (hydroxypropylcellulose) (HPC) 101 % of control | dose: 200.0 mg/kg/injection, schedule: Q01DX001 (ip), vehicle: Klucel (hydroxypropylcellulose) (HPC) 94 % of control
